Measured values taken from US7767240B2, “Microbiological control in poultry processing” (priority 2001, dated 2010).

Key:
[1] = tested on: total aerobic bacteria; assay: Whole bird total aerobic bacteria, chill tank soup at pH 7, 8, 9 (Example 3); type: cell-based; settings: 50 birds per treatment
Procedure: This group of tests was conducted to determine the effect of Clorox® bleach, Aquatize® biocide, and 1,3-dibromo-5,5-dimethylhydantoin (DBDMH) on carcass bacteria (Escherichia coli field strain) residual after 1,5-hour in a chill tank “soup”. Tests were conducted with soups at pH 7, pH 8 and pH 9 (adjusted by trisodium phosphate) for whole bird bacteria counts. Tests at pH 8 were conducted for individual bacteria counts.
In general the tests involved normal processing of 56-day-old birds and immersing the carcasses first in a warm bath containing 10^4 per mL Escherichia coli, 10^4 per mL Salmonella enteritidis, 10^4 per mL Pseudomonas aeruginosa, 10^4 per mL Campylobacter jejuni, and 10^4 per mL spoilage bacteria each from […] strains (Listeria monocytogenes and Shigella sonnei). The carcasses were then immersed in a chill tank “soup”, containing normal organic fluids (blood, fat, skin, and meat particles) and containing the microbiocides on the test.
The procedure used for whole bird wash sampling was as follows: • 1. All samples were kept at ≦50 degrees Fahrenheit following collection. • 2. Microbiological analyses of samples began within 24 hours of sample collection. • 3. Information on the individual sample identification, date of collection, time of collection (phase during shift), treatment group and location of sample point were recorded on each sample bottle. • 4. At each defined sample time, carcasses were taken individually from the processing line wearing latex or rubber gloves. The gloves were rinsed with alcohol between each collection. • 5. Any excess fluid was drained off from the carcass. Each individual carcass was transferred to a sterile stomacher bag. • 6. To each carcass contained in the sterile stomacher bag, 400 mL of Butterfield's Phosphate Diluent (BPD) was added while making sure to pour the BPD into the inside of the carcass cavity. The carcass was rinsed inside and out with a rocking motion for one minute (ca. 35 RPM). This was best done by grasping the broiler carcass with one hand and the closed top of the bag with the other then rocking with a reciprocal motion in a 18-24 inch arc, assuring that all surfaces (interior and exterior of the carcass) were rinsed. • 7. The rinse solutions from each stomacher bag was transferred into the sample bottles, taking care to ensure that the information on the date of collection, time of collection (phase during shift), treatment group and location of sampler point matched that of the sample. • 8. Each bottle was sealed with parafilm and placed into a styrene container with crushed or dry ice or frozen freezer packs for overnight delivery to a testing laboratory. • 9. All filled styrene containers were held in a chilled (not below freezing) area until within 1 to 2 hours of courier collection for shipment.
Aerobic plate counts—Counting rules according to BAM 8th ed., Chapter 3.
In greater detail the trial events and experimental design used in this group of tests were as follows: • a) Test microorganisms used were: • Escherichia coli ATCC 11229 • Pseudomonas aeruginosa ATCC 15442 • Salmonella enteritidis ATCC 13076 • Shigella sonnei ATCC 9290 • Listeria monocytogenes ATCC 7644 • Campylobacter jejuni ATCC 29428 • b) Test Procedure: All test strains were grown individually at 35° C. for 24 hours in the media specified in Table 12. Cells were harvested by centrifugation at 10,000×g for 10 minutes and washed twice with Butterfield's Phosphate Buffer (BPB of pH 7.2). Cells were resuspended in BPB to obtain a cell suspension of approximately 1.0×10^8 CFU/mL for each microorganism. The target inoculum levels were approximately 10^6 CFU/mL in the final test solutions. In the cases of S. enteritidis and P. aeruginosa the species were washed by pouring into prepared sterile centrifuge tubes with cheesecloth filters. […]

[2] = tested on: Salmonella; assay: Salmonella positive samples, simulated USDA HACCP detection (Example 6); type: cell-based, Salmonella enteritidis; settings: for Salmonella Positive Samples (Number per 51): birds inoculated with Salmonella prior to chilling
Procedure: The objective of this study was to determine the effect of Clorox® bleach and 1,3-dibromo-5,5-dimethylhydantoin (DBDMH) on individual carcass bacteria field strains after 1.5 hour in a chill tank solution and spoilage 20-day shelf life longevity (caused by bacteria contamination) in a Graded Level Study Model. After normal processing of 56-day-old birds, carcasses were immersed first in a warm bath containing 10^4 CFU's per mL Escherichia coli, 10^4 CFU's per mL Salmonella enteritidis, 10^4 CFU's per mL Pseudomonas aeruginosa, 10^4 CFU's per mL Campylobacter jejuni, and 10^4 CFU's per mL spoilage bacteria each from two strains (Listeria monocytogenes and Shigella sonnei). Carcasses were then immersed in a chill tank “soup”, containing normal organic fluids (blood, fat, skin, and meat particles) and containing various disinfectants (termed test materials). These tests were conducted at pH 8 (adjusted by trisodium phosphate). Skin pigmentation (Minolta Color Meter L value or Lightness, a value or redness and b value or yellowness) was determined before and after processing. Post-chilling skin bacteria of various strains were determined over a 20-day period. […] After salmonella infection in chill tanks, USDA HACCP salmonella detection was simulated and reported.
A DBDMH stock solution and DBDMH test solutions of the concentrations specified in Table 33, a bacteria stock solution, and a “chicken soup” were prepared as in Example 3. In addition, the bacterial broth treatments, the whole bird wash sampling procedure, and the methodologies used for quantitative or qualitative determinations for bacterial organisms were conducted as in Example 3.
The trial events and experimental design used in this group of tests were the same as in Example 5 with the following exceptions: • a) The temperature during the 20-day period of storage in the refrigerator was […]. • b) Observations of the degree of “bloating” (defined as water or air additions under the skin area considered objectionable) were conducted on all processed birds. • c) On each of sampling days 0, 2, 4, 6, 8, 10, 12, 14, 16, 18, and 20, ten carcasses from each treatment were analyzed by removing 23.8 cm^2 of skin from the breast right up to the neck using a template and a sterile scalpel. Each skin sample was placed in a bag with 15 mL Butterfield's Phosphate Buffer Solution (BPBS) added and treated in a Stomacher bag for 60 seconds. A 10-fold dilution series of the mixture was made in BPBS and two parallel samples of […] each were spread on the appropriate plate count agar for determination of the total viable numbers. The plates were incubated at 35° C. for 24 hours. Mean values were calculated from the two determinations of the three samples taken from each combination of chilling and storage. Bacterial numbers were reported as pooled or averaged log10 colony-forming units (CFU's) per square centimeter. • d) Also on sampling day 0, 102 total of the remaining 110 carcasses from each treatment (all bloating and oddly processed birds were removed) were “whole bird” washed by the sampling procedure described in Example 3. Salmonella detection were noted and reported as number of positive salmonella colonies per 51 birds and % of total.

CC1(C)C(=O)N(Br)C(=O)N1Br [DBDMH, 1,3-dibromo-5,5-dimethylhydantoin]
Whole Bird Total Aerobic Bacteria (% Reduction) ([1]; Water pH 7, 10 ppm Cl2 equivalent): 85% | Whole Bird Total Aerobic Bacteria (% Reduction) ([1]; Water pH 7, 20 ppm Cl2 equivalent): 99% | Whole Bird Total Aerobic Bacteria (% Reduction) ([1]; Water pH 8, 10 ppm Cl2 equivalent): 82% | Whole Bird Total Aerobic Bacteria (% Reduction) ([1]; Water pH 8, 20 ppm Cl2 equivalent): 98% | Whole Bird Total Aerobic Bacteria (% Reduction) ([1]; Water pH 9, 10 ppm Cl2 equivalent): 78% | Whole Bird Total Aerobic Bacteria (% Reduction) ([1]; Water pH 9, 20 ppm Cl2 equivalent): 96% | Salmonella Positive Samples (Number per 51) ([2]; 5 ppm, control 32/51): 7/51 | Salmonella Positive Samples (% of total) ([2]; 5 ppm, control 62.74%): 13.73% | Salmonella Positive Samples (% of total) ([2]; 10 ppm): 7.84% | Salmonella Positive Samples (Number per 51) ([2]; 10 ppm): 4/51 | Salmonella Positive Samples (% of total) ([2]; 15 ppm): 3.92% | Salmonella Positive Samples (Number per 51) ([2]; 15 ppm): 2/51 | Salmonella Positive Samples (% of total) ([2]; 20 ppm): 1.96% | Salmonella Positive Samples (Number per 51) ([2]; 20 ppm): 1/51 | Salmonella Positive Samples (% of total) ([2]; 25 ppm): 0.00% | Salmonella Positive Samples (Number per 51) ([2]; 25 ppm): 0/51
